# In patent US20090182003A1, “Methods and Compositions for Treatment Cell Proliferative Disorders” (President and Fellows of Harvard College, priority 2006, published 2009):
# Experiments:
# Rsk2 = Rsk2 (Homo sapiens, UniProt P51812); test: Kinase panel screen, Rsk2; assay type: biochemical; conditions: 20 μM resveratrol
# FL5.12 cells = test: Growth inhibition of hematopoietic cell line FL5.12; assay type: cell-based; conditions: 0.1, 1, 10 and 100 μM, 24 hours, in the presence of IL-3, Coulter cell count
# Description: Hematopoietic cell line FL5.12 cells were seed at equal density and grown in the presence of IL-3, a growth factor. Cells were then treated for 24 hours with 0.1, 1, 10 and 100 μM resveratrol. Cells were counted with a Coulter particle counter to determine cell inhibition by resveratrol.
# PKC = test: Kinase panel screen, PKC; conditions: concentration of 20 micromolar
# human p70S6K = human p70S6K (Homo sapiens, UniProt P23443); test: Kinase panel screen, p70S6K; assay type: biochemical; conditions: 10 or 100 μM ATP; 0.01-100 μM resveratrol
# human p70S6K, sequence (P23443 whole entry): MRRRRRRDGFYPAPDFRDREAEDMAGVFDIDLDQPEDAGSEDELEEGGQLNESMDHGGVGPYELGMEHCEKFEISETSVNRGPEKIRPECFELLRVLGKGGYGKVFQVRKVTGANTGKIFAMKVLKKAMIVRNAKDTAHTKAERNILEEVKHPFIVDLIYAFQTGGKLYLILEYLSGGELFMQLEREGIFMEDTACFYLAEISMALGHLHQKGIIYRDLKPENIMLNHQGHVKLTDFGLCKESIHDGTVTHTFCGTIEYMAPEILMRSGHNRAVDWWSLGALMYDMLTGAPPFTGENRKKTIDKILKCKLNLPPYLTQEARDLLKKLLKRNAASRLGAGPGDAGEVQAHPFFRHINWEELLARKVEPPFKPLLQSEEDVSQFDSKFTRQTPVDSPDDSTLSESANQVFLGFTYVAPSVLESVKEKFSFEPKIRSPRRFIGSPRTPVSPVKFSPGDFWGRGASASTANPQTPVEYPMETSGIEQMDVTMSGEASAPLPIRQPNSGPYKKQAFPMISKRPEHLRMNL
# Src = Src (Homo sapiens, UniProt P12931); test: Kinase panel screen, Src; assay type: biochemical; conditions: concentration of 20 micromolar
# Src, sequence (P12931 whole entry, species assumed): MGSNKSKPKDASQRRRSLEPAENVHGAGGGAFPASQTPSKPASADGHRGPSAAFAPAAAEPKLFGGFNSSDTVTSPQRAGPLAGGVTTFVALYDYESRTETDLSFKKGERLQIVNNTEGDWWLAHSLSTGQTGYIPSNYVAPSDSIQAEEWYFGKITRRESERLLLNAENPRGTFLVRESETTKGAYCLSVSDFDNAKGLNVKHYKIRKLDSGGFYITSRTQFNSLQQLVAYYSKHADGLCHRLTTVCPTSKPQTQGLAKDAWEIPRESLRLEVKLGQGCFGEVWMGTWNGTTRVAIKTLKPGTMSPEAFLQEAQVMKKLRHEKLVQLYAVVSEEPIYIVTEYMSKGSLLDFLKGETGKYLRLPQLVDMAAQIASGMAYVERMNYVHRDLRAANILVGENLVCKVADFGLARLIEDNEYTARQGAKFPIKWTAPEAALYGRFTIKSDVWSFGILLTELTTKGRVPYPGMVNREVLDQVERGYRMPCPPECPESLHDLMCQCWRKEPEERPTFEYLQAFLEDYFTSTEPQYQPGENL
# human JAK2 = human JAK2 (Homo sapiens, UniProt O60674); test: Kinase panel screen, JAK2; assay type: biochemical; conditions: kinase reaction with 10 or 100 μM ATP
# human JAK2, sequence (O60674 whole entry): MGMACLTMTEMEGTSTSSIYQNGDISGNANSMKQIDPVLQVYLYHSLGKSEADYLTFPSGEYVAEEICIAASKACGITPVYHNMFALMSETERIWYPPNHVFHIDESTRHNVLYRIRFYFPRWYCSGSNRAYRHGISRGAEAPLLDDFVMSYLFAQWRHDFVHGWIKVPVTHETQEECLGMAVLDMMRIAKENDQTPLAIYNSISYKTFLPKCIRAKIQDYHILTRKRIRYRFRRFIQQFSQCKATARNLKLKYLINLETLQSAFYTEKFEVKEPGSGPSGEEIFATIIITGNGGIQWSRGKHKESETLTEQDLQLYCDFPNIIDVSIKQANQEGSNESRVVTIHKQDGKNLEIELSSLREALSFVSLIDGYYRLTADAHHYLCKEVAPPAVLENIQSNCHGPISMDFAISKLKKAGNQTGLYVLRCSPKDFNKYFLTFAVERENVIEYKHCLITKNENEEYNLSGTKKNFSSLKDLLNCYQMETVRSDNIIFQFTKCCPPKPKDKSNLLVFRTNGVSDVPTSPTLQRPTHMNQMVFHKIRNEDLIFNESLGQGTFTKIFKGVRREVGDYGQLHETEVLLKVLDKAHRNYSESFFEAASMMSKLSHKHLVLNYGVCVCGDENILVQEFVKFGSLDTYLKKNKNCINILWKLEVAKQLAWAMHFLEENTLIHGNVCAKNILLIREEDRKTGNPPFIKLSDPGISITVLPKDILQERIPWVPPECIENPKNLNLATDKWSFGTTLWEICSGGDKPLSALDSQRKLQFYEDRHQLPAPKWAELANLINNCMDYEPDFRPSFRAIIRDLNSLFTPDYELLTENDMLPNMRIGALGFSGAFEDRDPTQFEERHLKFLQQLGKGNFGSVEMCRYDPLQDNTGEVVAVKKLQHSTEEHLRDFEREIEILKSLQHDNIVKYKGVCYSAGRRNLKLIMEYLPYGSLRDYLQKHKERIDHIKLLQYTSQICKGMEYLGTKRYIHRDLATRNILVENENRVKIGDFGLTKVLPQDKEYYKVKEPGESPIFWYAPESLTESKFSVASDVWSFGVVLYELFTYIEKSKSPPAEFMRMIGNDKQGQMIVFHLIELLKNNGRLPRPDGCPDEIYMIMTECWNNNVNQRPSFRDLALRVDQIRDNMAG
# human pim-2 = human pim-2 (Homo sapiens, UniProt Q9P1W9); test: Kinase panel screen, Pim-2; assay type: biochemical; conditions: kinase reaction with 10 or 100 μM ATP
# human pim-2, sequence (Q9P1W9 whole entry): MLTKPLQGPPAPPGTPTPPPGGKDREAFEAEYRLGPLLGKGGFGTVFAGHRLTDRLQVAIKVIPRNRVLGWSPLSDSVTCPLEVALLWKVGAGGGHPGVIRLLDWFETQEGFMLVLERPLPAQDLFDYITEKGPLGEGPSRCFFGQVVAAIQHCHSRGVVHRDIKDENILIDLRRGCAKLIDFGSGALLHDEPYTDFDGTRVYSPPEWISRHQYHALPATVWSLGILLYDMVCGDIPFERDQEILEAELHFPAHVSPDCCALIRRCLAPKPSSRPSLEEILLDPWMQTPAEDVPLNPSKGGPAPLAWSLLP
# PI3K = test: Kinase panel screen, PI3K; conditions: concentrations up to 20 micromolar
# NLK = biological target: T1, NLK (Homo sapiens, UniProt Q9UBE8); test: Kinase panel screen, NLK; assay type: biochemical; conditions: 10 μM ATP; 0.01-100 μM resveratrol
# T1 sequence (Q9UBE8 1-527): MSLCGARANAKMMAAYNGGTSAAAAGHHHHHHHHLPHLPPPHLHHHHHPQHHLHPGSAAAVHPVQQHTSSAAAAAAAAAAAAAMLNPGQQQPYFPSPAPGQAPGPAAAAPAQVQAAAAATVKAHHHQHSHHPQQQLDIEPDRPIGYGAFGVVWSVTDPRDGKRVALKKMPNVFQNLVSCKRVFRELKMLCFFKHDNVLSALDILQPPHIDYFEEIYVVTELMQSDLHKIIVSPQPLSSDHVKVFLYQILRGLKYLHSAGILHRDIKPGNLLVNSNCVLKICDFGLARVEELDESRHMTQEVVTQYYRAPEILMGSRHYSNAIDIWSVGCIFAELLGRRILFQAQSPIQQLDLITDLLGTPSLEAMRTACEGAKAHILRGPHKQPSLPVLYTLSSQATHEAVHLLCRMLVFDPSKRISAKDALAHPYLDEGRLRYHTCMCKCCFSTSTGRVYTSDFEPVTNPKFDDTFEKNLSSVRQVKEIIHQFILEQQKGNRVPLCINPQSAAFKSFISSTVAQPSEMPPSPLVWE
# Rsk2, sequence (P51812 whole entry): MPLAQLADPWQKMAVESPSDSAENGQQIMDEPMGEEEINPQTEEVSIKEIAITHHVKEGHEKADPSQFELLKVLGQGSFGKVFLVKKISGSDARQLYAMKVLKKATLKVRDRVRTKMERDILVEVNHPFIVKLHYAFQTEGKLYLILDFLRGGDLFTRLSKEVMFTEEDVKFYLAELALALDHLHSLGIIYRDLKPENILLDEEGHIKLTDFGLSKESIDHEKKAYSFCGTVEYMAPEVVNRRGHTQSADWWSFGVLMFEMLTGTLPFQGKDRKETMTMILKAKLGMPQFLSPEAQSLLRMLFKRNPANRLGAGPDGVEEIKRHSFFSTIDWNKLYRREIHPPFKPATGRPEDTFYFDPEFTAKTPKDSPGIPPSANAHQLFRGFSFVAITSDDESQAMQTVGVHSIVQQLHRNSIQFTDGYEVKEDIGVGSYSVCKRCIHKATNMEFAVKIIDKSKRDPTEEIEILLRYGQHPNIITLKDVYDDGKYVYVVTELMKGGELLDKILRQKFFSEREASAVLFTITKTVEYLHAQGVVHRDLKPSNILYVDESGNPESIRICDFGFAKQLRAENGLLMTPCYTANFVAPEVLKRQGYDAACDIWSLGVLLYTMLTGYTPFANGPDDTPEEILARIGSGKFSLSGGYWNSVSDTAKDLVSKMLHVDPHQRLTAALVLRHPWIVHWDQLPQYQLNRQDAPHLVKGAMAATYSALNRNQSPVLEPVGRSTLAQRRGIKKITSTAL
smiles,measurement,setting,value
"Oc1ccc(C=Cc2cc(O)cc(O)c2)cc1 [resveratrol, 3,5, 4′-trihydroxystilbene]",inhibition at 20 µM,Rsk2,~68%
same,Inhibition of FL5.12 cell growth (in words),FL5.12 cells,dose dependent inhibition
same,Inhibition of PKC (in words),PKC,either not inhibited or only weakly inhibited
same,Inhibition of p70S6K (in words),human p70S6K,specific inhibitor
same,Inhibition of Src (in words),Src,either not inhibited or only weakly inhibited
same,IC50,human JAK2,1470 nM
same,IC50,human pim-2,1490 nM
same,Inhibition of PI3K (in words),PI3K,no inhibition
same,Inhibition of NLK (in words),NLK,specific inhibitor
